{
  "source": "paper PMC10876879",
  "about": "“Sustained silencing peanut allergy by xanthopurpurin is associated with suppression of peripheral and bone marrow IgE-producing B cell” (Frontiers in Immunology, 2024)",
  "key": {"IgE production [1]": {"system": "IgE production", "test": "IgE production in vitro, other R. cordifolia compounds (data not shown)", "format": "cell-based"}, "IgE production [2]": {"system": "IgE production", "test": "IgE production in vivo, other R. cordifolia compounds (data not shown)"}, "IgE production [3]": {"system": "IgE production", "details": "cited from earlier work"}, "PN-allergic mice": {"system": "PN-allergic mice", "details": "oral berberine alone; cited from earlier work"}, "[4]": {"design": "method as in PMID 28208101", "details": "cited from earlier work"}, "IgE": {"system": "IgE", "design": "method as in PMID 26185589", "details": "cited from earlier work"}},
  "note": "Like-named read-outs stand apart in the source and are kept apart here.",
  "data": [
    {"compound": "1,3-dihydroxy-2-ethoxymethyl-9,10 anthraquinone [alizarin]", "values": [
      {"measurement": "IgE production in vitro", "setting": "IgE production [1]", "result": "inhibited IgE production only in vitro"},
      {"measurement": "IgE production in vivo", "setting": "IgE production [2]", "result": "failed in vivo"}
    ]},
    {"compound": "COc1ccc2cc3[n+](cc2c1OC)CCc1cc2c(cc1-3)OCO2", "note": "[berberine]", "values": [
      {"measurement": "IgE production in vitro", "setting": "IgE production [3]", "result": "significantly inhibited the IgE production"},
      {"measurement": "PN-specific IgE levels", "setting": "PN-allergic mice", "result": "did not reduce PN-specific IgE levels"},
      {"measurement": "Protection from anaphylaxis", "setting": "PN-allergic mice", "result": "failed to protect PN-allergic mice from anaphylaxis"},
      {"measurement": "Bioavailability", "setting": "[4]", "result": "poor"}
    ]},
    {"compound": "O=C1c2ccccc2C(=O)c2c(O)c(O)cc(O)c21", "note": "[purpurin, 1,2,4-trihydroxyanthraquinone]", "values": [
      {"measurement": "IgE production in vitro", "setting": "IgE production [1]", "result": "inhibited IgE production only in vitro"},
      {"measurement": "IgE production in vivo", "setting": "IgE production [2]", "result": "failed in vivo"}
    ]},
    {"compound": "omalizumab: anti-IgE therapy, neutralizes free serum IgE", "values": [
      {"measurement": "Anaphylactic reactions during oral immunotherapy (OIT)", "setting": "IgE", "result": "greatly reduce anaphylactic reactions"}
    ]}
  ]
}
